Assay results as given in PubChem BioAssay (NCI).
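These data come from cells grown in 96-well plates and exposed to compound for 48 hours at five concentrations. At the TGI there is no net growth.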

Legend:
Assay in all cases: inhibition of tumour cell growth, NCI panel, 48 h
[1] = system: SNB-19 CNS
[2] = system: SK-MEL-2 melanoma
[3] = system: SN12C renal
[4] = system: OVCAR-4 ovarian
[5] = system: SNB-78 CNS
[6] = system: EKVX NSCLC
[7] = system: KM12 colon
[8] = system: UACC-257 melanoma
[9] = system: HCC-2998 colon
[10] = system: NCI-H226 lung
[11] = system: HL-60(TB) leukemia
[12] = system: OVCAR-8 ovarian
[13] = system: SR leukemia
[14] = system: UO-31 renal
[15] = system: K-562 leukemia
[16] = system: NCI-H460 lung
[17] = system: UACC-62 melanoma
[18] = system: OVCAR-3 ovarian
[19] = system: SF-295 CNS
[20] = system: SK-OV-3 ovarian
[21] = system: HCT-116 colon
[22] = system: DLD-1 colon
[23] = system: OVCAR-5 ovarian
[24] = system: SNB-75 CNS
[25] = system: CAKI-1 renal
[26] = system: RXF-631 renal
[27] = system: SK-MEL-28 melanoma
[28] = system: ACHN renal
[29] = system: HT29 colon
[30] = system: NCI-H522 lung
[31] = system: HOP-62 NSCLC
[32] = system: SK-MEL-5 melanoma
[33] = system: A498 renal
[34] = system: SF-268 CNS
[35] = system: COLO 205 colon
[36] = system: MALME-3M melanoma
[37] = system: NCI-H23 lung
[38] = system: M14 melanoma
[39] = system: LOX IMVI melanoma
[40] = system: IGROV1 ovarian
[41] = system: SF-539 CNS
[42] = system: CCRF-CEM leukemia
[43] = system: LXFL 529 NSCLC
[44] = system: M19-MEL melanoma
[45] = system: DMS 114 small cell lung
[46] = system: A549 NSCLC
[47] = system: MOLT-4 leukemia
[48] = system: SW-620 colon
[49] = system: KM20L2 colon
[50] = system: RPMI-8226 leukemia
[51] = system: U251 CNS
[52] = system: HOP-18 NSCLC

Measured: TGI

COc1cc(O)c2c(c1)C(=O)c1cc(C)cc(O)c1C2=O
> 100 µM: all assays above
